Assay: clinical
Details: for Cmax / Tmax / AUC(0-t): human
Description: Clinical Trial Outline. […] All solid tumor types are eligible for the trial. […] An expansion cohort was included at the RP2D level to confirm safety and tolerability of the combination. […] In Part 2, patients were treated by giving both agents twice daily (BID dosing schedule).
Plasma samples were analyzed for AMXT 1501 concentration via a LC/MS^2 procedure (MI-0028-DB-AB; Agilux Laboratories, Worcester, Massachusetts), and the resulting concentration versus time data were used to estimate individual PK parameters using noncompartmental analysis (NCA).

[1] = Part 1 Cohort 1, 80 mg QD, Cycle 1 Day 1
[2] = Part 1 Cohort 1, 80 mg QD, Cycle 1 Day 14
[3] = Part 1 Cohort 1, 80 mg QD, Cycle 1 Day 28, +DFMO 500 mg/day
[4] = Part 1 Cohort 2, 160 mg QD, Cycle 1 Day 1
[5] = Part 1 Cohort 2, 160 mg QD, Cycle 1 Day 14
[6] = Part 1 Cohort 2, 160 mg QD, Cycle 1 Day 28, +DFMO 500 mg/day
[7] = Part 1 Cohort 3, 400 mg QD, Cycle 1 Day 14
[8] = Part 1 Cohort 3, 400 mg QD, Cycle 1 Day 28, +DFMO 500 mg/day
[9] = Part 1 Cohort 3, 400 mg QD, Day 1
[10] = Part 1 Cohort 4, 1200 mg QD, Cycle 1 Day 1
[11] = Part 1 Cohort 4, 1200 mg QD, Cycle 1 Day 14
[12] = Part 1 Cohort 5, 1800 mg QD, Cycle 1 Day 1
[13] = Part 1 Cohort 5, 1800 mg QD, Cycle 1 Day 14
[14] = Part 1 Cohort 5, 1800 mg QD, Cycle 1 Day 28, +DFMO 500 mg/day
[15] = Part 1 Cohort 5, 1800 mg QD, Cycle 2 Day 14, n=1

CCCCCCCCCCCCCCCC(=O)NCCCC[C@@H](N)C(=O)NCCCNCCCCNCCCN [AMXT 1501, D-lys(palmitoyl)-spermine]
Cohort 5 patient AUC versus mouse plasma AUC at efficacious dose (Cohort 5 patients vs 2.5 mg/kg SC in 4T1 mice): 1.72 times | Tlast Mean [1]: 13.2 h | Tlast Median [1]: 6 h | Tlast Mean [2]: 12 h | Tlast Median [2]: 6 h | Tlast Mean [3]: 18 h | Tlast Median [3]: 24 h | Tlast Mean [4]: 15 h | Tlast Median [4]: 15 h | Tlast Mean [5]: 15 h | Tlast Median [5]: 15 h | Tlast Mean [6]: 10.5 h | Tlast Median [6]: 6 h | Tlast Mean [7]: 19.5 h | Tlast Median [7]: 24 h | Tlast Mean [8]: 24 h | Tlast Median [8]: 24 h | Tlast Mean [9]: 25.5 h | Tlast Median [9]: 24 h | Tlast Mean [10]: 40 h | Tlast Median [10]: 24 h | Tlast Mean [11]: 24 h | Tlast Median [11]: 24 h | Tlast Mean [12]: 54 h | Tlast Median [12]: 60 h | Tlast Mean [13]: 24 h | Tlast Median [13]: 24 h | Tlast Mean [14]: 24 h | Tlast Median [14]: 24 h | Tlast Mean [15]: 24 h | Tlast Median [15]: 24 h | sustained plasma level versus predicted efficacious concentration (100 nM, 57 ng/mL) (adult patients, 1,200 mg or 800 mg per day, split BID): above this predicted efficacious concentration value | Cmax (in vivo, 160 mg, Cmax Mean, Part 1 Cohort 2, 160 mg QD, Cycle 1 Day 1): 19.5 ng/mL | Tmax (in vivo, 1800 mg, Tmax Mean, Part 1 Cohort 5, 1800 mg QD, Cycle 1 Day 1): 10.5 h | AUC(0-t) (plasma, oral, 80 mg, AUC0-6 hr Mean, Part 1 Cohort 1, 80 mg QD, Cycle 1 Day 1): 29.6 ng·h/mL | AUC(0-t) (plasma, oral, 80 mg, AUC0-6 hr Mean, Part 1 Cohort 1, 80 mg QD, Cycle 1 Day 14): 91 ng·h/mL | AUC(0-t) (plasma, oral, 80 mg, AUC0-6 hr Median, Part 1 Cohort 1, 80 mg QD, Cycle 1 Day 1): 29.9 ng·h/mL | AUC(0-t) (plasma, oral, 80 mg, AUC0-6 hr Median, Part 1 Cohort 1, 80 mg QD, Cycle 1 Day 14): 51.3 ng·h/mL | AUC(0-t) (plasma, oral, 80 mg, AUC0-t Mean, Part 1 Cohort 1, 80 mg QD, Cycle 1 Day 1): 92 ng·h/mL | AUC(0-t) (plasma, oral, 80 mg, AUC0-t Mean, Part 1 Cohort 1, 80 mg QD, Cycle 1 Day 14): 262 ng·h/mL | AUC(0-t) (plasma, oral, 80 mg, AUC0-t Median, Part 1 Cohort 1, 80 mg QD, Cycle 1 Day 1): 45.3 ng·h/mL | AUC(0-t) (plasma, oral, 80 mg, AUC0-t Median, Part 1 Cohort 1, 80 mg QD, Cycle 1 Day 14): 51.3 ng·h/mL | Cmax (plasma, oral, 80 mg, Cmax Mean, Part 1 Cohort 1, 80 mg QD, Cycle 1 Day 1): 11.7 ng/mL | Cmax (plasma, oral, 80 mg, Cmax Mean, Part 1 Cohort 1, 80 mg QD, Cycle 1 Day 14): 26.2 ng/mL | Cmax (plasma, oral, 80 mg, Cmax Median, Part 1 Cohort 1, 80 mg QD, Cycle 1 Day 1): 10.6 ng/mL | Cmax (plasma, oral, 80 mg, Cmax Median, Part 1 Cohort 1, 80 mg QD, Cycle 1 Day 14): 13.8 ng/mL | Tmax (plasma, oral, 80 mg, Tmax Mean, Part 1 Cohort 1, 80 mg QD, Cycle 1 Day 1): 4.8 h | Tmax (plasma, oral, 80 mg, Tmax Mean, Part 1 Cohort 1, 80 mg QD, Cycle 1 Day 14): 4.67 h | Tmax (plasma, oral, 80 mg, Tmax Median, Part 1 Cohort 1, 80 mg QD, Cycle 1 Day 1): 4 h | Tmax (plasma, oral, 80 mg, Tmax Median, Part 1 Cohort 1, 80 mg QD, Cycle 1 Day 14): 4 h | AUC(0-t) (plasma, oral, 160 mg, AUC0-6 hr Mean, Part 1 Cohort 2, 160 mg QD, Cycle 1 Day 1): 74.8 ng·h/mL | AUC(0-t) (plasma, oral, 160 mg, AUC0-6 hr Mean, Part 1 Cohort 2, 160 mg QD, Cycle 1 Day 14): 43.4 ng·h/mL | AUC(0-t) (plasma, oral, 160 mg, AUC0-6 hr Median, Part 1 Cohort 2, 160 mg QD, Cycle 1 Day 1): 67.1 ng·h/mL | AUC(0-t) (plasma, oral, 160 mg, AUC0-6 hr Median, Part 1 Cohort 2, 160 mg QD, Cycle 1 Day 14): 49.8 ng·h/mL | AUC(0-t) (plasma, oral, 160 mg, AUC0-t Mean, Part 1 Cohort 2, 160 mg QD, Cycle 1 Day 1): 169 ng·h/mL | AUC(0-t) (plasma, oral, 160 mg, AUC0-t Mean, Part 1 Cohort 2, 160 mg QD, Cycle 1 Day 14): 105 ng·h/mL | AUC(0-t) (plasma, oral, 160 mg, AUC0-t Median, Part 1 Cohort 2, 160 mg QD, Cycle 1 Day 1): 130 ng·h/mL | AUC(0-t) (plasma, oral, 160 mg, AUC0-t Median, Part 1 Cohort 2, 160 mg QD, Cycle 1 Day 14): 59.7 ng·h/mL | Cmax (plasma, oral, 160 mg, Cmax Mean, Part 1 Cohort 2, 160 mg QD, Cycle 1 Day 14): 14.1 ng/mL | Cmax (plasma, oral, 160 mg, Cmax Median, Part 1 Cohort 2, 160 mg QD, Cycle 1 Day 1): 17.8 ng/mL | Cmax (plasma, oral, 160 mg, Cmax Median, Part 1 Cohort 2, 160 mg QD, Cycle 1 Day 14): 16.2 ng/mL | Tmax (plasma, oral, 160 mg, Tmax Mean, Part 1 Cohort 2, 160 mg QD, Cycle 1 Day 1): 4 h | Tmax (plasma, oral, 160 mg, Tmax Mean, Part 1 Cohort 2, 160 mg QD, Cycle 1 Day 14): 5 h | Tmax (plasma, oral, 160 mg, Tmax Median, Part 1 Cohort 2, 160 mg QD, Cycle 1 Day 1): 4 h | Tmax (plasma, oral, 160 mg, Tmax Median, Part 1 Cohort 2, 160 mg QD, Cycle 1 Day 14): 5 h | AUC(0-t) (plasma, oral, 400 mg, AUC0-6 hr Mean, Part 1 Cohort 3, 400 mg QD, Cycle 1 Day 14): 289 ng·h/mL | AUC(0-t) (plasma, oral, 400 mg, AUC0-6 hr Mean, Part 1 Cohort 3, 400 mg QD, Day 1): 183 ng·h/mL | AUC(0-t) (plasma, oral, 400 mg, AUC0-6 hr Median, Part 1 Cohort 3, 400 mg QD, Cycle 1 Day 14): 304 ng·h/mL | AUC(0-t) (plasma, oral, 400 mg, AUC0-6 hr Median, Part 1 Cohort 3, 400 mg QD, Day 1): 207 ng·h/mL | AUC(0-t) (plasma, oral, 400 mg, AUC0-t Mean, Part 1 Cohort 3, 400 mg QD, Cycle 1 Day 14): 957 ng·h/mL | AUC(0-t) (plasma, oral, 400 mg, AUC0-t Mean, Part 1 Cohort 3, 400 mg QD, Day 1): 714 ng·h/mL | AUC(0-t) (plasma, oral, 400 mg, AUC0-t Median, Part 1 Cohort 3, 400 mg QD, Cycle 1 Day 14): 1100 ng·h/mL | AUC(0-t) (plasma, oral, 400 mg, AUC0-t Median, Part 1 Cohort 3, 400 mg QD, Day 1): 906 ng·h/mL | Cmax (plasma, oral, 400 mg, Cmax Mean, Part 1 Cohort 3, 400 mg QD, Cycle 1 Day 14): 66.4 ng/mL | Cmax (plasma, oral, 400 mg, Cmax Mean, Part 1 Cohort 3, 400 mg QD, Day 1): 47 ng/mL | Cmax (plasma, oral, 400 mg, Cmax Median, Part 1 Cohort 3, 400 mg QD, Cycle 1 Day 14): 73.5 ng/mL | Cmax (plasma, oral, 400 mg, Cmax Median, Part 1 Cohort 3, 400 mg QD, Day 1): 52.5 ng/mL | Tmax (plasma, oral, 400 mg, Tmax Mean, Part 1 Cohort 3, 400 mg QD, Cycle 1 Day 14): 5 h | Tmax (plasma, oral, 400 mg, Tmax Mean, Part 1 Cohort 3, 400 mg QD, Day 1): 5 h | Tmax (plasma, oral, 400 mg, Tmax Median, Part 1 Cohort 3, 400 mg QD, Cycle 1 Day 14): 5 h

From patent publication US20230321012A1 (priority 2021, published 2023)
